Structures are written as SMILES.

The target of test [1] is T1, CjapOBP1 (Cybister japonicus, UniProt A0A1Q1N696).
T1 sequence (A0A1Q1N696 17-136): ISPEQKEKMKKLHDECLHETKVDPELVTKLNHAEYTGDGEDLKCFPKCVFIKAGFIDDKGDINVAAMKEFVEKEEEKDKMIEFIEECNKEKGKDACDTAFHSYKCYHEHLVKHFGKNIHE
Briefly: Competitive fluorescence binding assay with 1-NPN as reporter. The note with it: protein 5 μM, 1-NPN 2 μM, competitor up to 16 μM. The text has this: (§1) To characterize the ligand-binding properties of the two OBPs, we performed fluorescence binding assays with several chemicals having different structures using N-phenyl-1-naphthylamine (1-NPN) as a fluorescent reporter. In the absence of any information about potential semiochemicals for this insect, as well as for related species, we selected some common plant volatiles, such as citral, coniferyl aldehyde, eugenol and 2-isobutyl-3-mthoxypyrazine, and structurally similar compounds. 1-NPN binds CjapOBP1 and CjapOBP2 with dissociation constants of 3.3 and 2.1 μM respectively (Fig. 5A). Among the ligands tested, we identified a single good ligand for each protein, citral for CjapOBP1 and coniferyl aldehyde for CjapOBP2 (Fig. 5B,C).
(§2) Figure 5 Affinity of CjapOBPs to candidate chemical ligands. (A) Both CjapOBP1 and CjapOBP2 bind the fluorescent probe 1-NPN, with dissociation constants of 3.3 μM and 2.1 μM, respectively. (B) Competitive binding curves of selected ligands to the two CjapOBPs. Mixtures of proteins (5 μM) and 1-NPN (2 μM) were titrated with 1mM solutions of the ligands in methanol. […] (C) The chemical structures of the chemicals applied.
(§3) To measure the affinity of the fluorescent ligand N-phenyl-1-naphthylamine (1-NPN), a 2 μM solution of the protein in 50 mM Tris-HCl (pH 7.4) was titrated with aliquots of 1 mM 1-NPN in methanol to final concentrations of 1–16 μM. The probe was excited at 337 nm, and emission spectra were recorded between 380 and 450 nm. The affinity of other ligands was measured in competitive binding assays, using the protein and the fluorescent reporter 1-NPN at the concentration of 5 μM and 2 μM respectively, while increasing the final concentration of each competitor up to 16 μM. Dissociation constants for 1-NPN were evaluated from Scatchard plots of the binding data, and other ligands were calculated from the corresponding IC50 values, using the equation: KD = [IC50]/1+[1-NPN]/K1-NPN, [1-NPN] being the free concentration of 1-NPN and K1-NPN being the dissociation constant of the complex protein/1-NPN.

Test [2] has as its target T2, CjapOBP2 (Cybister japonicus, UniProt A0A1Q1N694). As to the kind of experiment: Fluorescence binding assay, direct titration with 1-NPN. The note with it: recombinant CjapOBP2, 2 μM protein in 50 mM Tris-HCl pH 7.4, titrated with 1-NPN 1–16 μM; Scatchard plot; read-out: dissociation constant.
Source text: as §1, §2
(§4) To measure the affinity of the fluorescent ligand N-phenyl-1-naphthylamine (1-NPN), a 2 μM solution of the protein in 50 mM Tris-HCl (pH 7.4) was titrated with aliquots of 1 mM 1-NPN in methanol to final concentrations of 1–16 μM. […]

For test [3], the target named is T1, CjapOBP1. The test is described as above. The note with it: recombinant CjapOBP1, 2 μM protein in 50 mM Tris-HCl pH 7.4, titrated with 1-NPN 1–16 μM; Scatchard plot; read-out: dissociation constant.
Source text: as §1, §2, §4

Test [4] has as its target T2, CjapOBP2. As to the kind of experiment: Competitive fluorescence binding assay with 1-NPN as reporter. The note with it: protein 5 μM, 1-NPN 2 μM, competitor up to 16 μM.
Source text: as §1, §2, §3

T2 sequence (A0A1Q1N694 entry or part of it): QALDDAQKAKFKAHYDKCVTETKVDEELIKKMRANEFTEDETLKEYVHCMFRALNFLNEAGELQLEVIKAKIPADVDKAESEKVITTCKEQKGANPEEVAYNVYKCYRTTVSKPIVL

`CC(C)=CCCC(C)=CC=O` (mixture of isomers) [citral]: at CjapOBP1 [1], the “binding to CjapOBP1 (displacement of 1-NPN)” value was “good ligand”.
Regarding `c1ccc(Nc2cccc3ccccc23)cc1` [1-NPN, N-phenyl-1-naphthylamine], the Kd at CjapOBP2 [2] was found to be 2100 nM; at CjapOBP1 [3], 3300 nM.
In the case of `COc1cc(/C=C/C=O)ccc1O` [coniferyl aldehyde], the “binding to CjapOBP2 (displacement of 1-NPN)” value on CjapOBP2 [4] is reported as “good ligand”.
Take `COc1cc(CCC(=O)O)ccc1O` [dihydroferulic acid]: the “binding to CjapOBP2 (displacement of 1-NPN)” value on CjapOBP2 [4] is “did not show appreciable binding”.
Same read-out and setting: for `C=CCc1ccc(O)c(OC)c1` [eugenol] the value was “did not show appreciable binding”; for `CO/C(C=O)=C\c1ccccc1` [α-methoxycinnamaldehyde], “did not show appreciable binding”.

Source of the values: PMC4992826, “Male tarsi specific odorant-binding proteins in the diving beetle Cybister japonicus sharp” (Scientific Reports, 2016).
